The values below come from ChEMBL document CHEMBL2331080, “Further characterization of a putative serine protease contributing to the γ-secretase cleavage of β-amyloid precursor protein” (Bioorg Med Chem, 2013).

Data set [1] addresses T1, Gamma-secretase (Homo sapiens) (UniProt Q96BI3+Q9NZ42+Q8WW43+P49768+Q92542+P49810). The experiment in a line: Inhibition of gamma-secretase-mediated betaAPP K670N/M671L mutant cleavage in HEK293 cells assessed as inhibition of amyloid beta40/42 production at 60 uM after 8 hrs by chemiluminescence assay relative to control. The data set is classed as cell-based.
For data set [2], the target named is T1, Gamma-secretase (Homo sapiens). The experiment in a line: Inhibition of presenilin-dependent gamma secretase complex in HEK293 solubilized membranes using Flag-C100 as substrate assessed as inhibition of amyloid beta40/42 production at 60 uM after 16 hrs by Western blotting analysis. The data set is classed as cell membranes.
The subject of data set [3] is HEK293. The experiment in a line: Cytotoxicity against HEK293 cells overexpressing betaAPP K670N/M671L mutant at 60 uM by LDH release assay. Particulars: human, hek293, 60 µM. The data set is classed as cell-based.
The next data set addresses Gamma-secretase. Put plainly: Inhibition of gamma-secretase-mediated betaAPP K670N/M671L mutant cleavage in HEK293 cells assessed as inhibition of amyloid beta40/42 production after 8 hrs by chemiluminescence assay. The data set is classed as cell-based, Homo sapiens.
Data set [4] deals with T1, Gamma-secretase (Homo sapiens). The experiment in a line: Modulation of gamma-secretase-mediated betaAPP K670N/M671L mutant cleavage in HEK293 cells assessed as inhibition of amyloid beta40/42 production at 10 to 30 uM after 8 hrs by chemiluminescence assay. The data set is classed as cell-based.
Data set [5] shares this target. Put plainly: Inhibition of gamma-secretase-mediated betaAPP K670N/M671L mutant cleavage in HEK293 cells assessed as inhibition of amyloid beta40/42 production at 10 to 30 uM after 8 hrs by chemiluminescence assay relative to control. The data set is classed as cell-based.
Data set [6] concerns HEK293. The experiment in a line: Cytotoxicity against HEK293 cells overexpressing betaAPP K670N/M671L mutant at 10 to 30 uM by LDH release assay. The data set is classed as cell-based. Conditions: human, hek293, 30 µM.
Data set [7] deals with HEK293. Put plainly: Cytotoxicity against HEK293 cells overexpressing betaAPP K670N/M671L mutant at 10 uM by LDH release assay. Conditions: human, hek293, 10 µM. It is filed as cell-based.
Data set [8] in a line: Half life of the compound in buffer. The data set is classed as physicochemical.
A short description of data set [9]: Half life of the compound in hepes buffer. The data set is classed as physicochemical.
Data set [10] deals with T1, Gamma-secretase (Homo sapiens). The experiment in a line: Modulation of gamma-secretase-mediated betaAPP K670N/M671L mutant cleavage in HEK293 cells assessed as inhibition of amyloid beta40/42 production at 60 uM after 8 hrs by chemiluminescence assay. The data set is classed as cell-based.
The target in data set [11] is T2, Proteasome Macropain subunit MB1 (Homo sapiens, UniProt P28074).
T2 sequence (P28074 whole entry): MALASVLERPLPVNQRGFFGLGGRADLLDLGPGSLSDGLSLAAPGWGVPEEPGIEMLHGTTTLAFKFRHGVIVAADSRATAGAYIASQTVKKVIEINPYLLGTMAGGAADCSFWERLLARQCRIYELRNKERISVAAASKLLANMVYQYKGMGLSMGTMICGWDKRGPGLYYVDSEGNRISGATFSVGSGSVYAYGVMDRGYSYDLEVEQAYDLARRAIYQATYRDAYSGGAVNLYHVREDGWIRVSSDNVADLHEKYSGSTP
Put plainly: Inhibition of chymotrypsin-like activity of Proteasome subunit beta 5 (unknown origin) assessed as inhibition of beta-amyloid production by cell-based assay.

Molecules are shown by their SMILES. Active and inactive are the calls of the source. The rule behind the calls is not given here. Some results are limits rather than exact numbers.

`COc1oc(=O)c2cc(NC(=O)CCCC(=O)O)ccc2c1Cl`: the inhibition entry in data set [1] is “inactive”.

Turning to `COc1oc(=O)c2cc(NC(C)=O)ccc2c1Cl`, in [1], the inhibition result is “inactive”. In the case of `CC(C)C[C@@H](NC(=O)[C@H](Cc1ccccc1)NC(=O)c1ccccc1)B(O)O`, the inhibition in [1] is above 50%. Also, the inhibition result in [2] was “inactive”. As to `COc1oc(=O)c2cc(NCc3ccccc3)ccc2c1Cl`, the Activity result in the data set with HEK293 [3] is reported as “Non-toxic”. Moreover, the inhibition result in [1] is “inactive”. Turning to `COc1oc(=O)c2cc(NC(=O)C(F)(F)C(F)(F)F)ccc2c1Cl`, the inhibition result in data set [1] is “inactive”. Consider `CCNc1ccc2c(Cl)c(OC)oc(=O)c2c1`, for which the IC50 at Gamma-secretase was 10 µM. Regarding `COc1oc(=O)c2cc(NC/C=C\c3ccccc3)ccc2c1Cl`, in the data set with HEK293 [3], the Activity result is “Non-toxic”. For the same compound, in data set [1], the inhibition result is “inactive”. Consider `COc1oc(=O)c2cc(NC(=O)OC(C)(C)C)ccc2c1Cl`, for which, in data set [1], the inhibition result was “inactive”. Regarding `COc1oc(=O)c2cc(NCc3ccc4ccccc4c3)ccc2c1Cl`, the inhibition result in [4] was “inactive”. Moreover, in data set [5], the inhibition is above 50%. For the same compound, the Activity entry in the data set with HEK293 [6] is “Non-toxic”. With `CCCCOc1oc(=O)c2cc(N)ccc2c1Cl`, the Activity entry in the data set on HEK293 [3] was “Toxic”; with HEK293 [7], “Non-toxic”.

As to `CCCCOc1oc(=O)c2cc([N+](=O)[O-])ccc2c1Cl`, the inhibition result in data set [1] is “inactive”. The half-life in data set [8] is below 0.333 h. Take `COc1oc(=O)c2cc(NCCC(C)C)ccc2c1Cl`: the Activity entry with HEK293 [3] is on record as “Non-toxic”. The inhibition in [1] was above 50%.

With `CC(C)C[C@H](NC(=O)[C@H](Cc1ccccc1)NC(=O)c1cnccn1)B1O[C@H]2C[C@H]3C[C@H](C3(C)C)[C@@]2(C)O1`, the inhibition result in [1] and in [2] was “inactive” in each case. On to `CC(C)C[C@@H](NC(=O)[C@H](Cc1ccccc1)NC(=O)c1cnccn1)B(O)O`, for which the inhibition entry in data set [1] and in [2] was “inactive” throughout.

Take `COc1oc(=O)c2cc(NCC(C)C)ccc2c1Cl`: on Gamma-secretase, the IC50 was 10 µM. Also, the inhibition in data set [5] and in data set [1] was above 50% in each case. Further, the Activity entry in the data set on HEK293 [6] is reported as “Non-toxic”.

For the compound `COc1oc(=O)c2cc(Nc3cccc([N+](=O)[O-])c3)ccc2c1Cl`, the Activity entry in the data set on HEK293 [3] is on record as “Non-toxic”. For the same compound, the inhibition result in data set [1] was “inactive”.

Take `COc1oc(=O)c2cc(NCCCc3ccccc3)ccc2c1Cl`: in the data set with HEK293 [3], the Activity result is on record as “Non-toxic”. For the same compound, in data set [1], the inhibition entry was “inactive”. For the compound `CCCCCCCC(=O)Nc1ccc2c(Cl)c(OC)oc(=O)c2c1`, in data set [1], the inhibition result was “inactive”. `COCCOc1cc2ccc(N)cc2c(=O)o1`: the inhibition result in data set [1] was “inactive”. In [9], `CCOc1oc(=O)c2cc(N)ccc2c1Cl` gave a half-life of 3.5 h. The inhibition in data set [1] is above 50%. Turning to `CCC(C)Oc1oc(=O)c2cc([N+](=O)[O-])ccc2c1Cl` (centres undefined), in data set [1], the inhibition result is “inactive”. Moreover, the half-life in data set [8] was below 0.333 h.

Consider `O=c1oc(OCCBr)cc2ccc([N+](=O)[O-])cc12`, for which, in data set [1], the inhibition was above 50%.

In the case of `COc1oc(=O)c2cc(NCCC(C)(C)C)ccc2c1Cl`, the inhibition in data set [5] is above 50%. The Activity result in the data set with HEK293 [6] is “Toxic”. Turning to `CCC(C)Oc1oc(=O)c2cc(N)ccc2c1Cl` (centres undefined), the results for the Activity entry with HEK293 [3] and in the data set with HEK293 [7] were “Toxic” and “Non-toxic”, respectively.

Take `COc1oc(=O)c2cc(NC(=O)OCC(Cl)(Cl)Cl)ccc2c1Cl`: the inhibition result in data set [1] is “inactive”.

In the case of `CCCCCCCCCNc1ccc2c(Cl)c(OC)oc(=O)c2c1`, the inhibition in data set [5] was above 50%. Moreover, the Activity entry in the data set on HEK293 [6] is on record as “Non-toxic”. Further, the inhibition result in data set [10] is “Active”. For `CCCCC(CC)CNc1ccc2c(Cl)c(OC)oc(=O)c2c1` (centres undefined), the inhibition in data set [5] is above 50%. Besides, in the data set on HEK293 [6], the Activity entry is reported as “Toxic”. Turning to `COc1oc(=O)c2cc(NC(=O)OCC3c4ccccc4-c4ccccc43)ccc2c1Cl`, the inhibition entry in data set [1] is “inactive”. With `COc1ccc(CNc2ccc3c(Cl)c(OC)oc(=O)c3c2)cc1`, the Activity result with HEK293 [3] is given as “Non-toxic”. In data set [1], the inhibition result is “inactive”.

Take `COc1oc(=O)c2cc(NCC(C)(C)C)ccc2c1Cl`: in the data set with HEK293 [3], the Activity entry was “Toxic”. For `CC(C)C[C@H](NC(=O)[C@H](Cc1ccccc1)NC(=O)c1ccccc1)B1O[C@H]2C[C@H]3C[C@H](C3(C)C)[C@@]2(C)O1`, the IC50 at Gamma-secretase worked out at 10 µM. Besides, the inhibition in data set [1] is above 50%. Moreover, the inhibition entry in data set [2] is “inactive”. On to `COc1oc(=O)c2cc(N)ccc2c1Cl`, for which the half-life in data set [9] is 3.5 h.

As for `COc1oc(=O)c2cc(NCc3ccc(OCc4ccccc4)cc3)ccc2c1Cl`, the inhibition result in data set [4] is “inactive”. Moreover, the inhibition in data set [5] was above 50%. Also, the Activity entry in the data set with HEK293 [6] was “Non-toxic”. Take `COc1oc(=O)c2cc(NCc3ccc([N+](=O)[O-])cc3)ccc2c1Cl`: the IC50 on Gamma-secretase was 10 µM. Besides, the inhibition in [5] and in [1] was above 50% in each case. In the data set on HEK293 [6], the Activity entry was “Non-toxic”. As for `CC(C)C[C@H](NC(=O)[C@H](Cc1ccccc1)NC(=O)c1cnccn1)B(O)O`, the inhibition entry in data set [1] and in data set [2] was “inactive” each time. Consider `COc1cc2ccc(N)cc2c(=O)o1`, for which the inhibition result in [1] is “inactive”. On to `COc1oc(=O)c2cc(NCc3cccc4ccccc34)ccc2c1Cl`, for which, in the data set with HEK293 [3], the Activity entry was “Non-toxic”. The inhibition in [1] is above 50%. Consider `CCOC(=O)Nc1ccc2c(Cl)c(OC)oc(=O)c2c1`, for which the inhibition entry in data set [1] is “inactive”. On the same count and under the same terms, next, `COCCOc1cc2ccc([N+](=O)[O-])cc2c(=O)o1`: above 50%. As to `COc1oc(=O)c2cc(NC(=O)C(C)(C)C)ccc2c1Cl`, in [10], the inhibition entry is “Active”. For the compound `CC(C)C[C@@H](NC(=O)[C@H](Cc1ccccc1)NC(=O)c1cnccn1)B1O[C@H]2C[C@H]3C[C@H](C3(C)C)[C@@]2(C)O1`, the inhibition result in [1] and in [2] was “inactive” each time. As for `COc1cc2ccc([N+](=O)[O-])cc2c(=O)o1`, in [10], the inhibition entry was “Active”. As to `Nc1ccc2cc(OCCBr)oc(=O)c2c1`, the inhibition entry in [1] is “inactive”. For the compound `COc1oc(=O)c2cc(NCC3CCCCC3)ccc2c1Cl`, the inhibition in data set [5] was above 50%. The Activity result with HEK293 [6] is given as “Toxic”.

As to `CCOc1oc(=O)c2cc([N+](=O)[O-])ccc2c1Cl`, the inhibition entry in [1] was “inactive”. The half-life in data set [8] was below 0.333 h.

For `COc1oc(=O)c2cc(NC(=O)OCc3ccccc3)ccc2c1Cl`, the inhibition result in [1] is “inactive”. `COc1oc(=O)c2cc(Nc3ccccc3)ccc2c1Cl`: the Activity result in the data set on HEK293 [3] is on record as “Toxic”. Take `COc1oc(=O)c2cc(NC(=O)OC34CC5CC(CC(C5)C3)C4)ccc2c1Cl`: in [1], the inhibition result was “inactive”.

With `CC(C)C[C@H](NC(=O)[C@H](Cc1ccccc1)NC(=O)c1ccccc1)B(O)O`, the IC50 in [11] was found to be 0.009 µM. Moreover, in data set [1], the inhibition is above 50%. For the same compound, the inhibition entry in data set [2] was “inactive”.

As to `CC(C)C[C@@H](NC(=O)[C@H](Cc1ccccc1)NC(=O)c1ccccc1)B1O[C@H]2C[C@H]3C[C@H](C3(C)C)[C@@]2(C)O1`, the inhibition in [1] was above 50%. Also, the inhibition result in data set [2] was “inactive”. Regarding `CCCCCCNc1ccc2c(Cl)c(OC)oc(=O)c2c1`, the Activity result in the data set on HEK293 [3] was “Non-toxic”. The inhibition in data set [1] is above 50%. As for `C=CCOC(=O)Nc1ccc2c(Cl)c(OC)oc(=O)c2c1`, the inhibition entry in [1] is “inactive”.

As to `COc1oc(=O)c2cc(NCc3ccccc3[N+](=O)[O-])ccc2c1Cl`, the inhibition entry in [4] was “inactive”. The inhibition in data set [5] is above 50%. Moreover, the Activity entry with HEK293 [6] is given as “Non-toxic”.
